The term IC50 denotes the point on the concentration scale where inhibition reaches its midpoint.

The values that follow come from ChEMBL document CHEMBL4251582 (Eur J Med Chem, 2018).

For assay [1], the system named is MCF7. As to the kind of experiment: Cytostatic activity against human MCF7 cells. The assay is classed as functional, cell-based.
Assay [2] addresses T1, Estrogen receptor (Homo sapiens, UniProt P03372).
T1 sequence (P03372 whole entry): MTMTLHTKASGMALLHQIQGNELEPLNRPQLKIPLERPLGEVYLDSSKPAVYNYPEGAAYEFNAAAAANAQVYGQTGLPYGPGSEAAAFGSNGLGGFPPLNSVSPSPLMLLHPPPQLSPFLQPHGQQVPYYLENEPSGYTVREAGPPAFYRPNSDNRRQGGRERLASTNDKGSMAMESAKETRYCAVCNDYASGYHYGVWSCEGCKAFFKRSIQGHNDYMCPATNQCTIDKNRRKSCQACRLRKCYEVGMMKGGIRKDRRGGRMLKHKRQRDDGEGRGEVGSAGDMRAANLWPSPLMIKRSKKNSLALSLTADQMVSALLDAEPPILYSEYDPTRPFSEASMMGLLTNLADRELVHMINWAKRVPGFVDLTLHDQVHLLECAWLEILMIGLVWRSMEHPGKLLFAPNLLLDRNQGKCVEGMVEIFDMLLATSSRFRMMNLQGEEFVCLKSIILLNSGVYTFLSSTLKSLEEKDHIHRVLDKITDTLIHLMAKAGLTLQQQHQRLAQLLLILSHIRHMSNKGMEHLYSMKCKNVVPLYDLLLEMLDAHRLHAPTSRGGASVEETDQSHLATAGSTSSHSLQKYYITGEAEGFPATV
Nature of the assay: Inhibition of estrogen receptor (unknown origin).

The target in assay [3] is T2, Prostaglandin G/H synthase 2 (Ovis aries, UniProt P79208).
T2 sequence (P79208 whole entry): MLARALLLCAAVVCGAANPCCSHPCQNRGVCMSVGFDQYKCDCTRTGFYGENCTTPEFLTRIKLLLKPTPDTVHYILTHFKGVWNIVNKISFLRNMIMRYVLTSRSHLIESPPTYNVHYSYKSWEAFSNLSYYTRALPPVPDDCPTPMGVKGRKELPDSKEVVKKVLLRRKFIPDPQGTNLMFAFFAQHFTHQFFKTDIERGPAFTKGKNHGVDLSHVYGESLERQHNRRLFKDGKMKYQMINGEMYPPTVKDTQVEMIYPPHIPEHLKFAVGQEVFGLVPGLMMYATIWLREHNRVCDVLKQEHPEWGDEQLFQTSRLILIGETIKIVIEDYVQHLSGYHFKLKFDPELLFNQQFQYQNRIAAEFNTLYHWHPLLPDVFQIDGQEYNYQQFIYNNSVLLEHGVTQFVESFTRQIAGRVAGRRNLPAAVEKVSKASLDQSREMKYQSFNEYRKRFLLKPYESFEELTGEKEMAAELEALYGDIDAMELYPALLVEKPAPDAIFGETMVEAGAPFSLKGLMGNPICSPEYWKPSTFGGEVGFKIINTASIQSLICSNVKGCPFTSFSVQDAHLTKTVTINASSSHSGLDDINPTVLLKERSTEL
As to the kind of experiment: Inhibition of ovine COX2 using arachidonic acid as substrate assessed as reduction in PGF2alpha production preincubated for 5 mins followed by substrate addition measured after 2 mins by enzyme immunoassay.

For assay [4], the species on record is Ovis aries. Nature of the assay: Selectivity index, ratio of IC50 for ovine COX1 to IC50 for ovine COX2.
Assay [5] concerns the target T1, Estrogen receptor. As to the kind of experiment: Binding affinity to estrogen receptor (unknown origin).
The species entered for assay [6] is Homo sapiens. Nature of the assay: Selectivity index, ratio of IC50 for of ERalpha receptor (unknown origin) to IC50 for ERbeta receptor (unknown origin).
In assay [7] the test system is MCF7. Nature of the assay: Antiproliferative activity against human MCF7 cells. Type of assay: functional, cell-based.
For assay [8], the species on record is Homo sapiens. As to the kind of experiment: Ratio of selectivity index for test compound to selectivity index for compound for ERalpha (unknown origin) over ERbeta (unknown origin).
The target of assay [9] is T3, Estrogen receptor (Homo sapiens) (UniProt P03372).
T3 sequence (whole entry): T1 sequence (P03372 whole entry)
Nature of the assay: Potency index, ratio of tamoxifen IC50 to compound IC50 for binding affinity to ERalpha receptor (unknown origin).

The subject of assay [10] is MCF7. Nature of the assay: Cytotoxicity against human MCF7 cells after 72 hrs by LDH assay. The settings on record: MCF7, 72 h. Type of assay: functional, cell-based.

`CCc1c(-c2ccccc2)c2cnn(OCCCN(C)C)c2c2ccccc12` registered an IC50 in assay [1] of 1000 nM.
`CC/C(=C(\c1ccccc1)c1cnn(OCCCN(C)C)c1)c1ccccc1` had an IC50 in assay [1] of 3000 nM.
In the case of `CCN(CC)CCOc1ccc(C(=C(C#N)c2ccccc2)c2ccc(OCCN(CC)CC)cc2)cc1`, in assay [2], the IC50 was more than 10000 nM.
With `CC/C(=C(\c1ccccc1)c1ccc(OCCN(C)C)cc1)c1ccccc1` [TAMOXIFEN], the half-inhibitory concentration (IC50) in [1] came out at 2700 nM.
`CCCCC(=C(c1ccccc1)c1ccccc1)c1ccc(S(C)(=O)=O)cc1`: the 50% inhibitory concentration (IC50) in assay [3] is 14 nM. For the same compound, in [4], the Ratio IC50 is more than 7140.
Turning to `CCC(Cc1ccccc1)=C(c1ccc(O)cc1)c1ccc(OCCN2CCCC2)cc1`, the IC50 is 20 nM in assay [5] and less than 250 nM in assay [7]. Further, the Ratio IC50 is 12 in assay [6], 900 in [8] and 80 in assay [9].
As to `CC/C(Cc1ccccc1)=C(\c1ccccc1)c1ccc(OCCN2CCCC2)cc1`, in assay [10], the IC50 amounted to 12500 nM.
Turning to `CN1CCN(CCOc2ccc(C(=C(C#N)c3ccccc3)c3ccc(OCCN4CCN(C)CC4)cc3)cc2)CC1`, the IC50 in assay [2] was more than 10000 nM.
